One data set relates to K562. The data set can be described thus: Antiproliferative activity against human K562 cells after 72 hrs by resazurin dye reduction assay. In kind it is functional. Conditions: K562, 72 h. A general note: Alamar Blue is a resazurin reagent that responds to reducing activity.
The test system of the next data set is HeLa. The data set can be described thus: Cytotoxicity against human HeLa cells after 72 hrs by methylene blue staining. It is filed as functional.
Data set [1] can be described thus: Antiproliferative activity against HUVEC after 72 hrs by resazurin dye reduction assay. In kind it is cell-based. Particulars: human, HUVEC cells.
Another data set has as its system HT-29. In words: Antiproliferative activity against human HT-29 cells after 72 hrs by resazurin dye reduction assay. Conditions: HT-29, 72 h. In kind it is functional.

The text below walks through data of ChEMBL document CHEMBL2439994, “Synthesis and biological evaluation of hydrazidomycin analogues” (Bioorg Med Chem Lett, 2013).

The GI50 is the concentration at which growth is held to half of that of the control. A high value points to lower sensitivity of the cells. What is called CC50 is the concentration giving 50% cytotoxicity. A higher CC50 goes with lower toxicity to the cells.

For the compound `CCCCCCCCCCCCCCNNC(=O)COC`, the GI50 with K562 came out at 66.2 µM. This compound showed a CC50 in the data set on HeLa of 59.6 µM. Moreover, the GI50 at 72 h in data set [1] came out at 33.6 µM.
In the same order, the values of `CCCCCCCCCCNNC(=O)COC` are 167 µM, 138 µM and 156 µM.
The matching figures for `CCCCCCCCCCCCCCN(NC(=O)COC)C(=O)CCCCCCCCC`: > 110 µM, > 110 µM and 103 µM.
In the same order, the values of `CCCCCCCCCCN(NC(=O)COC)C(=O)CCCCCCCCC` are 97.3 µM, > 125 µM and 114 µM.
With `CCCCCCCCCCCC/C=C/N(NC(=O)COC)C(=O)CCCCCCCCC`, the GI50 with K562 was > 110 µM. Further, the CC50 in the data set on HeLa was > 110 µM. In addition, growth in data set [1] was halved (GI50 at 72 h) at 46.2 µM.
In the data set on K562, `CCCCCCCCCCCC/C=C\N(NC(=O)CCl)C(=O)CCCCCCCCC` registered a GI50 of 18.4 µM. The CC50 in the data set with HeLa was found to be 104 µM. In addition, in data set [1], growth was halved (GI50 at 72 h) at 57.5 µM.
The matching figures for `CCCCCCCCCCCC/C=C\N(NC(C)=O)C(=O)CCCCCCCCC`: 41.9 µM, 83.3 µM and 39.7 µM.
As to `CCCCCCCCCCCC/C=C/N(NC(=O)COC)C(=O)OC(C)(C)C`, halving of growth with K562 (GI50) required 41.4 µM. It took 57.7 µM to reach half-maximal cytotoxicity in the data set with HeLa (CC50). The compound further yielded a GI50 at 72 h in data set [1] of 36.1 µM.
The matching figures for `CCCCCCCC/C=C/N(NC(=O)COC)C(=O)OC(C)(C)C`: 45 µM, 83.2 µM and 49.9 µM.
The matching figures for `CCCCCCCCCCCC/C=C\N(NC(=O)COC)C(=O)OC(C)(C)C`: 28.3 µM, 85.3 µM and 15.8 µM.
The matching figures for `CCCCCCCC/C=C\N(NC(=O)COC)C(=O)OC(C)(C)C`: 61.3 µM, 104 µM and 85.5 µM.
The compound `CCCCCCCCCCN(NC(=O)COC)C(=O)OC(C)(C)C` registered a GI50 with K562 of 40.6 µM. Besides, in the data set on HeLa, the midpoint of cytotoxicity, the CC50, lay at 104 µM. Moreover, the GI50 at 72 h in data set [1] amounted to 22.9 µM.
`CCCCCCCCCCCCCCN(NC(=O)COC)C(=O)OC(C)(C)C` had a GI50 with K562 of 40.9 µM. In the data set on HeLa, the CC50 came out at 41.9 µM. This compound registered a GI50 at 72 h in data set [1] of 12.2 µM.
In the same order, the values of `CCCCCCCCCCCCCCN(N)C(=O)OC(C)(C)C` are 58.7 µM, 96.5 µM and 27.1 µM.
Regarding `CCCCCCCCCCCC/C=C\N(NC(=O)COC)C(=O)CCCCCCCCC` [HYDRAZIDOMYCIN A], the 50% growth inhibitory concentration (GI50) in the data set on HT-29 is 0.46 µM; in the data set with K562, > 110 µM. In addition, the CC50 in the data set with HeLa came to 108 µM. This compound displayed a GI50 at 72 h in data set [1] of 70.7 µM.
